Test results as given in patent US5212163A, “Compounds” (Beecham Group p.l.c., priority 1989, dated 1993).

Molecular target: rabbit bone collagenase (Oryctolagus cuniculus, UniProt P13943)
Assay: biochemical
Description: The test is performed essentially as in Cawston and Barrett Anal. Biochem. 99, 340-345 (1979). Compounds for testing are dissolved in methanol and added to purified rabbit bone collagenase or human collagenase purified from culture supernatants from the human lung fibroblast cell line, WI-38, diluted in a suitable aqueous buffer. After a 5 min pre-incubation at 37° C., the assay tubes are cooled to 4° C. and ^14 C-acetylated rat skin Type I collagen is added. The assay tubes are incubated at 37° C. overnight. The ^14 C-collagen forms insoluble fibrils which are the substrate for the enzyme.
To terminate the assay, the assay tubes are spun at 12000 rpm for 25 min. Undigested ^14 C-collagen remains as insoluble fibrils and is pelleted, while digested ^14 C-collagen remains as soluble peptides in the supernatant. A sample of the supernatant is taken for liquid scintillation counting.

rabbit bone collagenase, sequence (P13943 99-468): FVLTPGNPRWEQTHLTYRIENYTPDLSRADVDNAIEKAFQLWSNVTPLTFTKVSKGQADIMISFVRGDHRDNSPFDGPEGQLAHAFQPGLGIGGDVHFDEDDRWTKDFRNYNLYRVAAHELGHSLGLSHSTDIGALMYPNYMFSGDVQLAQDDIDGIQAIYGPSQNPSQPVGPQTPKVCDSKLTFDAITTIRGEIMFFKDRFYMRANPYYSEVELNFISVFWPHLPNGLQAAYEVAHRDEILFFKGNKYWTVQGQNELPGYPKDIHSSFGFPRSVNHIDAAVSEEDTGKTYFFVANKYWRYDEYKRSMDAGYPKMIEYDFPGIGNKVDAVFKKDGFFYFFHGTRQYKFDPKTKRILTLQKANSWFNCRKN

Q: `COC(=O)[C@H](C)NC(=O)[C@H](Cc1ccc(OC)cc1)NC(=O)[C@H](CC(C)C)NC(C)P(=O)(O)O` (stereo partly drawn) [Example E2, N-[N-[N-(1-Phosphonoethyl)-leucyl]-O-methyl-(S)-tyrosyl]-(S)-alanine, methyl ester] was tested. Which IC50 did it give?
A: 3100 nM

Q: `COC(=O)[C@H](C)NC(=O)[C@H](Cc1c[nH]c2ccccc12)NC(=O)[C@H](CC(C)C)NC(C)P(=O)(O)O` (stereo partly drawn) [Example E1, N-[N-[N-(1-Phosphonoethyl)-leucyl]-(S)-tryptophyl]-(S)-alanine, methyl ester] was tested. Which IC50 did it give?
A: 2400 nM
